Several values for one entry are separate records, joined by “and”; a condition that tells them apart may be missing. Identical values can stand only once.
System: T-47D spheroids with HUVEC/MSC, viability
Assay: Anticancer human tumor T-47D cell line growth inhibition [PI3K];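 also: spheroids exposed to agents for seven days before reading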;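 as to viability, T/C: percent of DMSO vehicle control luminescence so 100% = untreated growth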
Settings: for viability, T/C: stronger effect = lower value
How it was run: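 Tumor cells were combined with HUVEC and MSCs into spheroids, then dosed with PI3K-inhibitor combinations over half-log ranges capped near clinical Cmax or 10 microM.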

[1] = curve of first compound, second compound 0.00316 µM
[2] = curve of first compound, second compound 0.01 µM
[3] = curve of first compound, second compound 0.0316 µM
[4] = curve of first compound, second compound 0.1 µM
[5] = curve of first compound, second compound 0.316 µM
[6] = curve of first compound, second compound 1 µM

`Cn1nccc1Nc1nccc(-c2ccn(C(CO)c3ccc(Cl)c(F)c3)c(=O)c2)n1` (stereo not given) + CC(Nc1ccc2c(c1)OCCn1cc(N3C(=O)OCC3C(F)F)nc1-2)C(N)=O showed an IC50 [1] greater than 10 µM, an IC50 [2] greater than 10 µM and an IC50 [3] greater than 10 µM. It also gave an IC50 [4] greater than 10 µM, an IC50 [5] greater than 10 µM and an IC50 [6] greater than 10 µM. For the same compound, the viability, T/C (second compound 0.00316 µM, first compound 0.0316 µM) was 98.6%, the viability, T/C (second compound 0.00316 µM, first compound 0.1 µM) was 97.4% and the viability, T/C (second compound 0.00316 µM, first compound 0.316 µM) was 93.3%. It also gave a viability, T/C (second compound 0.00316 µM, first compound 1 µM) of 96%, a viability, T/C (second compound 0.00316 µM, first compound 3.16 µM) of 113% and a viability, T/C (second compound 0.00316 µM, first compound 10 µM) of 109%. For the same compound, the viability, T/C (second compound 0.01 µM, first compound 0.0316 µM) was 106%, the viability, T/C (second compound 0.01 µM, first compound 0.1 µM) was 92.8% and the viability, T/C (second compound 0.01 µM, first compound 0.316 µM) was 104%. It also gave a viability, T/C (second compound 0.01 µM, first compound 1 µM) of 106%, a viability, T/C (second compound 0.01 µM, first compound 3.16 µM) of 111% and a viability, T/C (second compound 0.01 µM, first compound 10 µM) of 99.6%. For the same compound, the viability, T/C (second compound 0.0316 µM, first compound 0.0316 µM) was 86.1%, the viability, T/C (second compound 0.0316 µM, first compound 0.1 µM) was 85.2% and the viability, T/C (second compound 0.0316 µM, first compound 0.316 µM) was 93.2%. It also gave a viability, T/C (second compound 0.0316 µM, first compound 1 µM) of 99.7%, a viability, T/C (second compound 0.0316 µM, first compound 3.16 µM) of 105% and a viability, T/C (second compound 0.0316 µM, first compound 10 µM) of 85.7%. For the same compound, the viability, T/C (second compound 0.1 µM, first compound 0.0316 µM) was 103%, the viability, T/C (second compound 0.1 µM, first compound 0.1 µM) was 100% and the viability, T/C (second compound 0.1 µM, first compound 0.316 µM) was 89.4%. For the same compound, the viability, T/C (second compound 0.1 µM, first compound 1 µM) was 92.9%, the viability, T/C (second compound 0.1 µM, first compound 3.16 µM) was 87% and the viability, T/C (second compound 0.1 µM, first compound 10 µM) was 92.3%. For the same compound, the viability, T/C (second compound 0.316 µM, first compound 0.0316 µM) was 71.8%, the viability, T/C (second compound 0.316 µM, first compound 0.1 µM) was 71.3% and the viability, T/C (second compound 0.316 µM, first compound 0.316 µM) was 65.4%. For the same compound, the viability, T/C (second compound 0.316 µM, first compound 1 µM) was 67%, the viability, T/C (second compound 0.316 µM, first compound 3.16 µM) was 69.4% and the viability, T/C (second compound 0.316 µM, first compound 10 µM) was 71.3%. The viability, T/C (second compound 1 µM, first compound 0.0316 µM) was 65.7%, the viability, T/C (second compound 1 µM, first compound 0.1 µM) was 60% and the viability, T/C (second compound 1 µM, first compound 0.316 µM) was 52%. For the same compound, the viability, T/C (second compound 1 µM, first compound 1 µM) was 47.4%, the viability, T/C (second compound 1 µM, first compound 3.16 µM) was 58.1% and the viability, T/C (second compound 1 µM, first compound 10 µM) was 57.1%.

`Cn1nccc1Nc1nccc(-c2ccn(C(CO)c3ccc(Cl)c(F)c3)c(=O)c2)n1` (stereo not given) was tested, and the viability, T/C (compound 0.0316 µM) was 103% [middle of 4 runs], the viability, T/C (compound 0.1 µM) was 93.2% [middle of 4 runs] and the viability, T/C (compound 0.316 µM) was 105% [middle of 4 runs]. For the same compound, the viability, T/C (compound 3.16 µM) was 99.5% [middle of 4 runs], the viability, T/C (compound 10 µM) was 82.5% and 92.7% and 101% (2×) and the IC50 (curve of compound) was greater than 10 µM.

Compound `Cn1cnc2c(F)c(Nc3ccc(Br)cc3Cl)c(C(=O)NOCCO)cc21` + COc1c(OCCCN2CCOCC2)ccc2c3n(c(=NC(=O)c4cnc(N)nc4)nc12)CCN3 has an IC50 [1] greater than 3 µM, an IC50 [2] greater than 3 µM and an IC50 [3] greater than 3 µM. The IC50 [4] was less than 0.00949 µM, the IC50 [5] was less than 0.00949 µM and the IC50 [6] was less than 0.00949 µM. The viability, T/C (second compound 0.00316 µM, first compound 0.00949 µM) was 97.1%, the viability, T/C (second compound 0.00316 µM, first compound 0.03 µM) was 88.8% and the viability, T/C (second compound 0.00316 µM, first compound 0.0949 µM) was 88.3%. For the same compound, the viability, T/C (second compound 0.00316 µM, first compound 0.3 µM) was 94.8%, the viability, T/C (second compound 0.00316 µM, first compound 0.949 µM) was 92.5% and the viability, T/C (second compound 0.00316 µM, first compound 3 µM) was 76.6%. It also gave a viability, T/C (second compound 0.01 µM, first compound 0.00949 µM) of 89.5%, a viability, T/C (second compound 0.01 µM, first compound 0.03 µM) of 77.5% and a viability, T/C (second compound 0.01 µM, first compound 0.0949 µM) of 102%. For the same compound, the viability, T/C (second compound 0.01 µM, first compound 0.3 µM) was 66%, the viability, T/C (second compound 0.01 µM, first compound 0.949 µM) was 85.6% and the viability, T/C (second compound 0.01 µM, first compound 3 µM) was 92.9%. For the same compound, the viability, T/C (second compound 0.0316 µM, first compound 0.00949 µM) was 64%, the viability, T/C (second compound 0.0316 µM, first compound 0.03 µM) was 51.7% and the viability, T/C (second compound 0.0316 µM, first compound 0.0949 µM) was 64.6%. The viability, T/C (second compound 0.0316 µM, first compound 0.3 µM) was 57.8%, the viability, T/C (second compound 0.0316 µM, first compound 0.949 µM) was 71.9% and the viability, T/C (second compound 0.0316 µM, first compound 3 µM) was 67.7%. For the same compound, the viability, T/C (second compound 0.1 µM, first compound 0.00949 µM) was 41.4%, the viability, T/C (second compound 0.1 µM, first compound 0.03 µM) was 34.3% and the viability, T/C (second compound 0.1 µM, first compound 0.0949 µM) was 32.9%. It also gave a viability, T/C (second compound 0.1 µM, first compound 0.3 µM) of 38.7%, a viability, T/C (second compound 0.1 µM, first compound 0.949 µM) of 41.5% and a viability, T/C (second compound 0.1 µM, first compound 3 µM) of 35.4%. For the same compound, the viability, T/C (second compound 0.316 µM, first compound 0.00949 µM) was 12.8%, the viability, T/C (second compound 0.316 µM, first compound 0.03 µM) was 16.8% and the viability, T/C (second compound 0.316 µM, first compound 0.0949 µM) was 16.7%. For the same compound, the viability, T/C (second compound 0.316 µM, first compound 0.3 µM) was 13.7%, the viability, T/C (second compound 0.316 µM, first compound 0.949 µM) was 20.4% and the viability, T/C (second compound 0.316 µM, first compound 3 µM) was 14.4%. The viability, T/C (second compound 1 µM, first compound 0.00949 µM) was 6.16%, the viability, T/C (second compound 1 µM, first compound 0.03 µM) was 4.64% and the viability, T/C (second compound 1 µM, first compound 0.0949 µM) was 7.54%. It also gave a viability, T/C (second compound 1 µM, first compound 0.3 µM) of 7.14%, a viability, T/C (second compound 1 µM, first compound 0.949 µM) of 7.29% and a viability, T/C (second compound 1 µM, first compound 3 µM) of 6.05%.
